What all share (type): cell-based, human
Data set [1] can be described thus: neutrophil viability (trypan blue exclusion). The settings on record: neutrophils. As for the experimental part: (§1) The viability was evaluated by trypan blue exclusion assay. The cell
(§2) incubated at 37° C. for 10 min with effectors. The aliquot was
(§3) mixed with an equal amount of trypan blue solution and immediately counte
(§4) under a Nikon light microscope.

In the next data set the test system is neutrophils. As to the kind of experiment: neutrophil viability (trypan blue exclusion). The settings on record: for cytotoxic damage to neutrophils: 25 μM. As for the experimental part:
as §1, §2, §3, §4

Data set [2] relates to 47 kDa and 65 kDa proteins. Kind of data set: PMA-induced phosphorylation of 47 kDa and 65 kDa neutrophil proteins. The settings on record: for phosphorylation of 47 kDa and 65 kDa proteins / time in which inhibitory effect on phosphorylation is observed: 15-45 μM; for phosphorylation of 47 kDa and 65 kDa proteins: PMA 1.5 μM; for time in which inhibitory effect on phosphorylation is observed: incubation. The method, then:
Excess unbound components were removed by centrifugation and the pellets were resuspended in the same buffer, repeating twice. The cells then were divided into 7 treatment groups, each containing ≈1×10^7 cells in a total volume of 0.4 ml. […] Two minutes later, the reaction was terminated by adding 0.1 ml of Laemmli's sample buffer and 20 mM EDTA, followed by heating at 100° C. for 5 min. Aliquots were separated through 10% sodium dodecyl sulfate gels using known procedures. ^32 P incorporation was visualized by autoradiography.

Data set [3] relates to phosphoinositide turnover. Kind of data set: fMLP-induced phosphoinositide turnover in neutrophils (32P incorporation). Conditions: for activity at 5 µM: Homo sapiens, Neutrophil, Table VI, 5 μM effector plus fMLP, control 100, read-out: PIP labeling. The method, then: Amount of ^32 P in PIP and PIP2 was measured using TLC separation. The spots on TLC plates were scraped off and the radioactivity therein was measured with a Beckman scintillation counter. Each spot was compared as to intensity with the identical spot of the control sample.
After incubation, the cells were washed and resuspended in the same buffer at a concentration of 1×10^7 cells/ml. Each suspension (1 ml) then was pretreated with TMS, SPN or DMS, or equal volume of 50% ethanol, for 10 min at 37° C. Then keeping the same temperature, fMLP was added to a final concentration of 1.0 μM. Two minutes later, the reaction was terminated by adding 3.75 ml of chloroform/methanol (1:2) to each cell suspension, followed by sonication for 15 min. An additional 1.25 ml of chloroform, 1.25 ml of water and 50 μl of acetone were added and the total mixture was mixed and left overnight.
Following centrifugation of the mixture, the phospholipids were extracted by Folch's partition method, taking the lower phase from the cell lysate. […] The TLC plate was developed with control phospholipids, in a solvent comprising chloroform/methanol/4M NaOH at a ratio of 45:35:10 and containing 0.1% CDTA (trans-1,2-diaminocyclohexane-N,N,N',N'-tetraacetic acid) for 65 min at 37° C. The bands were identified by staining the control phospholipids with primuline and visualization under ultraviolet light. Autoradiography was performed with Kodak diagnostic film GBX-2 (Rochester N.Y.) by exposing overnight at 37° C.

The subject of the next data set is GMP-140. As to the kind of experiment: GMP-140 expression on platelets (flow cytometry, mAb AC1.2). As for the experimental part:
FIGS. 11A and 11B depict results of representative experiments assessing the percentage of platelets capable of binding an anti-GMP-140 antibody following exposure to various agents. The percentage binding activity was determined in a flow cytometer. SPN is sphingosine; H-7 is 1-(5-isoquinolinylsulfonyl)-2-methylpiperazine; Cal is calphostin-C; TMS is trimethylsphingosine; and DMS is dimethylsphingosine.
GMP-140 expression was determined by (i) flow cytometry with mAb AC1.2, which is directed to GMP-140 and obtained from Dr. Furie (Tufts Univ. Sch. Med., Boston, Mass.) and (ii) adhesion of HL60 cells on platelet-coated solid phase.
A suspension of platelets (1×10^8 /ml) in Tyrode's buffer was preincubated with inhibitor at pH 7.2, 37° C., for 5 minutes, then supplemented with activator, either thrombin (final concentration 1 U/ml) or phorbol 12-myristate 13-acetate (PMA (final concentration 10^-7 M), and the mixture was incubated at 37° C. for 10 minutes. Platelets were fixed with an equal volume of 2% (w/v) paraformaldehyde in PBS and washed 2 times with PBS containing 1% (w/v) BSA.
The paraformaldehyde-fixed platelets were incubated with 50 μl of mAb AC1.2 (2.5 μg/ml) at room temperature for 30 minutes. Platelets were washed 2 times with PBS containing 1% (w/v) BSA, supplemented with 50 μl of fluorescein isothiocyanate-labeled goat anti-mouse Ig (purchased from Tago Co., Burlingame, Calif.), incubated at room temperature for 30 minutes and again washed 2 times with PBS containing 1% (w/v) BSA. As a negative control, paraformaldehyde-fixed platelets were incubated with mouse IgG instead of mAb AC1.2 and treated as described above.
The platelets were analyzed in an Epics flow cytometer (Coulter Corp.) with suitable gating. To calculate the inhibitory effect of various reagents, the mean fluorescence intensity of resting platelets (obtained on incubation of platelets without activator) was subtracted from the value for the activated platelet sample.

Where [4] appears, read: Table III, control 94, read-out: Viability.

Entries after “also recorded” stand apart in the source; their conditions may differ. Like-named read-outs stand apart in the source and are kept apart here.

For orientation: viability means a per cent measure of how many cells are alive, often set against a control.

Compound `CCCCCCCCCCCCC/C=C/[C@@H](O)[C@H](CO)N(C)C` [DMS, (4E)-N,N-dimethyl-D-erythro-sphingosine] registered a cytotoxicity at 10 min, 15 µM in data set [1] of 12 to 13%. In data set [1] (Table V, 37° C., 10 min), this compound showed a viability at 10 min, 5 µM of 96 ± 3%; a viability at 10 min, 25 µM of 29 ± 5%; a viability at 10 min, 45 µM of 0%. For the same compound, the viability at 10 min, 15 µM in data set [1] (Table V, 37° C., 10 min, read-out: Viability of neutrophils) was 88 ± 8%. Moreover, the “cytotoxic damage to neutrophils” value with neutrophils is given as “major cytotoxic damage to neutrophils”. Also, in data set [2], the “phosphorylation of 47 kDa and 65 kDa proteins” value was “diminished significantly”; the “time in which inhibitory effect on phosphorylation is observed” value (shortened to “time in which inhibitory effect”) is at most 2 min. Besides, the activity at 5 µM in data set [3] is 146 ± 27%. For the same compound, the “inhibition of GMP-140 expression” value with GMP-140 (PMA-induced, 10-20 μM) was “strongly inhibited GMP-140 expression”. For the same compound, the “inhibition of GMP-140 expression” value in the data set on GMP-140 (thrombin-induced, FIG. 11A) is on record as “strongly inhibited thrombin-induced GMP-140 expression”.
As for Calphostin C, the Viability in the data set with neutrophils (Table III, 5 μM, control 94, 10 min) worked out at 46 ± 5.5. For the same compound, in the data set with GMP-140 (thrombin-induced, 10-20 μM), the “inhibition of GMP-140 expression” value is given as “weak inhibition”.
`CCCCCCCCCCCCC/C=C/[C@@H](O)[C@@H](N)CO` [SPN, sphingosine] registered a cytotoxicity at 10 min, 15 µM in data set [1] of 12 to 13%. Also, the viability at 10 min, 15 µM in data set [1] (setting [4]) came out at 87 ± 5.3%. In data set [1] (Table V, 37° C., 10 min), this compound gave a viability at 10 min, 5 µM of 95 ± 3%; a viability at 10 min, 25 µM of 53 ± 18%; a viability at 10 min, 45 µM of 5 ± 5%. Also, the “cytotoxic damage to neutrophils” value in the data set with neutrophils is “major cytotoxic damage to neutrophils”. In data set [2], the “phosphorylation of 47 kDa and 65 kDa proteins” value was “diminished significantly”; the “time in which inhibitory effect” value was at most 2 min. In addition, the activity at 5 µM in data set [3] stood at 174 ± 37%. The “inhibition of GMP-140 expression” value in the data set on GMP-140 (PMA-induced, FIG. 11B) was “Neither SPN nor H-7 showed inhibition”. Further, the “inhibition of GMP-140 expression” value with GMP-140 (thrombin-induced, FIG. 11A) is recorded as “no inhibition”.
In the case of `CCCCCCCCCCCCC/C=C/[C@@H](O)[C@H](CO)[N+](C)(C)C` [TMS, N,N,N-trimethylsphingosine], in data set [1] (setting [4]), the viability at 10 min, 15 µM was 97 ± 2.9%. In data set [1] (Table V, 37° C., 10 min), the viability at 10 min, 5 µM worked out at 98 ± 2%; the viability at 10 min, 25 µM turned out to be 83 ± 6%; the viability at 10 min, 45 µM was 63 ± 8%. In the data set on neutrophils (15 μM), the cell cytotoxicity entry was “no significant cell cytotoxicity” and the “cell viability during transmigration” value is on record as “without affecting the viability of the cells”. The “cytotoxic damage to neutrophils” value in the data set on neutrophils is on record as “negligible”. Besides, the cell viability result in the data set with neutrophils (Examples 9 and 10) is recorded as “without an adverse effect on cell viability; also recorded: without effecting cell viability”. Besides, in data set [2], the “phosphorylation of 47 kDa and 65 kDa proteins” value is “diminished significantly”; the “time in which inhibitory effect” value was at most 2 min. Moreover, the “phosphorylation of specific proteins related to protein kinase C” value in data set [2] (Example 7) was “had an affect on phosphorylation of specific proteins”. Besides, the “suppression of fMLP-dependent enhancement of 32P incorporation into PI, PIP and PIP2” value in data set [3] (5 μM, fMLP 1 μM) is recorded as “suppressed strongly”. Further, the “fMLP induced phosphorylation of phosphotidyl inositols” value in data set [3] (Example 8) is listed as “suppressed”. Besides, the activity at 5 µM in data set [3] came to 127 ± 19%. In the data set with GMP-140 (PMA-induced, 10-20 μM), the “inhibition of GMP-140 expression” value is recorded as “strongly inhibited GMP-140 expression”. The GMP-140 expression result in the data set on GMP-140 (platelets preincubated with TMS) is listed as “inhibits GMP-140 expression; also recorded: down-regulated or blocked”. Moreover, the “inhibition of GMP-140 expression” value in the data set on GMP-140 (thrombin-induced, 10-20 μM) is listed as “strongly inhibited GMP-140 expression”.

These data come from patent publication US5466716A, “Liposomal trimethylsphingosine” (The Biomembrane Institute, priority 1994, dated 1995).
